PMC4216756 (Clinical cancer research : an official journal of the …, 2014)
Values joined by “and” are separate entries in the source; they are usually repeats but may differ in a detail not shown here. Equal values may be shown once. Read-outs that look alike come from different tables or passages of the source.

Columns and labels:
[1] = cited from earlier work
[2] = tested on: patients with advanced thymic epithelial tumors; experiment: Safety: treatment-related adverse events; type: in vivo, human
[3] = tested on: Regulatory T cells and CD8+ T cells; experiment: T cell subsets and immune markers in PBMC by flow cytometry; type: in vivo, human
Thymoma = experiment: Phase I/II efficacy; type: in vivo, human; conditions: belinostat + PAC
thymic epithelial tumors = experiment: Phase I/II efficacy; type: in vivo, human
[4] = tested on: protein acetylation, tubulin acetylation, p21 in PBMC; experiment: Protein/tubulin acetylation and p21 in PBMC by multiparametric flow cytometry; type: in vivo, human
[5] = Plasma pharmacokinetics of belinostat, 48-hr CIVI, cycle 1; type: in vivo, human; conditions: for clearance / half-life: human, plasma, intravenous; for half-life: cycle 1, n=25
[6] = tested on: patients with advanced thymic epithelial tumors; experiment: Phase I dose escalation; type: in vivo, human
Thymic carcinoma = experiment: Phase I/II efficacy; type: in vivo, human; conditions: belinostat + PAC
[7] = tested on: γ-H2AX expression on CD3+ and CD14+ cells; experiment: DNA damage: γ-H2AX expression in PBMC; type: in vivo, human
TETs = conditions: single-agent belinostat, cited from earlier work
[8] = Dose level 1 (n=24), belinostat 1000 mg/m^2 + PAC
[9] = Dose level 2 (n=2), belinostat 2000 mg/m^2 + PAC
[10] = following belinostat plus chemotherapy, p<0.0001
[11] = 23 evaluable patients treated at dose level 1
[12] = belinostat + PAC, Total, 25 evaluable patients

For `O=C(/C=C/c1cccc(S(=O)(=O)Nc2ccccc2)c1)NO` [belinostat, N-hydroxy-3-(phenylsulphamoylphenyl) acrylamide], the Elimination half-life ([1]; administered IV with paclitaxel and carboplatin) is listed as 102 min, the Elimination half-life ([1]; administration over 30 minutes) is listed as 31.2 to 32.4 min and the Elimination half-life ([1]; orally alone) is listed as 114 min. The “Alanine aminotransferase increased, Grade 3/4 (%)” value ([2]; All dose levels (n= 26)) was 4 (15) n (%), the “Aspartate aminotransferase increased, Grade 3/4 (%)” value ([2]; All dose levels (n= 26)) was 6 (23) n (%) and the “Atrial fibrillation, Grade 3/4 (%)” value ([2]; All dose levels (n= 26)) was 1 (4) n (%). The “Ejection fraction decreased, Grade 3/4 (%)” value ([2]; All dose levels (n= 26)) was 1(4) n (%), the “Electrocardiogram QT corrected interval prolonged, Grade 3/4 (%)” value ([2]; All dose levels (n= 26)) was 1(4) n (%) and the “Enterocolitis infectious, Grade 3/4 (%)” value ([2]; All dose levels (n= 26)) was 2(8) n (%). For the same compound, the “Febrile neutropenia, Grade 3/4 (%)” value ([2]; All dose levels (n= 26)) was 3(12) n (%), the “Hearing impaired, Grade 3/4 (%)” value ([2]; All dose levels (n= 26)) was 1(4) n (%) and the “Hypermagnesemia, Grade 3/4 (%)” value ([2]; All dose levels (n= 26)) was 3 (12) n (%). For the same compound, the “Hypoalbuminemia, Grade 3/4 (%)” value ([2]; All dose levels (n= 26)) was 2(8) n (%), the “Hypocalcemia, Grade 3/4 (%)” value ([2]; All dose levels (n= 26)) was 2(8) n (%) and the “Hypokalemia, Grade 3/4 (%)” value ([2]; All dose levels (n= 26)) was 4(15) n (%). The “Hypomagnesemia, Grade 3/4 (%)” value ([2]; All dose levels (n= 26)) was 1(4) n (%), the “Hyponatremia, Grade 3/4 (%)” value ([2]; All dose levels (n= 26)) was 1(4) n (%) and the “Hypophosphatemia, Grade 3/4 (%)” value ([2]; All dose levels (n= 26)) was 6(23) n (%). For the same compound, the “Limb edema, Grade 3/4 (%)” value ([2]; All dose levels (n= 26)) was 1 (4) n (%), the “Lung infection, Grade 3/4 (%)” value ([2]; All dose levels (n= 26)) was 2(8) n (%) and the “Lymphocyte count decreased, Grade 3/4 (%)” value ([2]; All dose levels (n= 26)) was 26 (100) n (%). For the same compound, the “Neutrophil count decreased, Grade 3/4 (%)” value ([2]; All dose levels (n= 26)) was 21 (81) n (%), the “Non-cardiac chest pain, Grade 3/4 (%)” value ([2]; All dose levels (n= 26)) was 1(4) n (%) and the “Pain in extremity, Grade 3/4 (%)” value ([2]; All dose levels (n= 26)) was 1(4) n (%). The “Platelet count decreased, Grade 3/4 (%)” value ([2]; All dose levels (n= 26)) was 12 (46) n (%), the “Thromboembolic event, Grade 3/4 (%)” value ([2]; All dose levels (n= 26)) was 3(12) n (%) and the “Tumor lysis syndrome, Grade 3/4 (%)” value ([2]; All dose levels (n= 26)) was 1(4) n (%). The “Urinary tract infection, Grade 3/4 (%)” value ([2]; All dose levels (n= 26)) was 1(4) n (%), the “White blood cell decreased, Grade 3/4 (%)” value ([2]; All dose levels (n= 26)) was 24 (92) n (%) and the “Alanine aminotransferase increased, Grade 3/4” value [2, 8] was 3. For the same compound, the “Aspartate aminotransferase increased, Grade 3/4” value [2, 8] was 4, the “Ejection fraction decreased, Grade 3/4” value [2, 8] was 1 and the “Electrocardiogram QT corrected interval prolonged, Grade 3/4” value [2, 8] was 1. For the same compound, the “Enterocolitis infectious, Grade 3/4” value [2, 8] was 1, the “Febrile neutropenia, Grade 3/4” value [2, 8] was 3 and the “Hearing impaired, Grade 3/4” value [2, 8] was 1. For the same compound, the “Hypermagnesemia, Grade 3/4” value [2, 8] was 3, the “Hypoalbuminemia, Grade 3/4” value [2, 8] was 1 and the “Hypomagnesemia, Grade 3/4” value [2, 8] was 1. The “Hypophosphatemia, Grade 3/4” value [2, 8] was 4, the “Lung infection, Grade 3/4” value [2, 8] was 2 and the “Lymphocyte count decreased, Grade 3/4” value [2, 8] was 24. For the same compound, the “Neutrophil count decreased, Grade 3/4” value [2, 8] was 19, the “Non-cardiac chest pain, Grade 3/4” value [2, 8] was 1 and the “Pain in extremity, Grade 3/4” value [2, 8] was 1. For the same compound, the “Platelet count decreased, Grade 3/4” value [2, 8] was 10, the “Thromboembolic event, Grade 3/4” value [2, 8] was 3 and the “Urinary tract infection, Grade 3/4” value [2, 8] was 1. For the same compound, the “White blood cell decreased, Grade 3/4” value [2, 8] was 22, the “Alanine aminotransferase increased, Grade 3/4” value [2, 9] was 1 and the “Aspartate aminotransferase increased, Grade 3/4” value [2, 9] was 2. For the same compound, the “Atrial fibrillation, Grade 3/4” value [2, 9] was 1, the “Enterocolitis infectious, Grade 3/4” value [2, 9] was 1 and the “Hypoalbuminemia, Grade 3/4” value [2, 9] was 1. For the same compound, the “Hypophosphatemia, Grade 3/4” value [2, 9] was 2, the “Lymphocyte count decreased, Grade 3/4” value [2, 9] was 2 and the “Neutrophil count decreased, Grade 3/4” value [2, 9] was 2. For the same compound, the “Platelet count decreased, Grade 3/4” value [2, 9] was 2, the “Tumor lysis syndrome, Grade 3/4” value [2, 9] was 1 and the “White blood cell decreased, Grade 3/4” value [2, 9] was 2. For the same compound, the “Patients requiring dose reductions of PAC due to toxicities” value ([2]; belinostat + PAC, n=26) was 35%, the “Patients who discontinued treatment due to adverse events” value ([2]; belinostat + PAC, n=26) was “Four” and the “Patients with QTc prolongation” value ([2]; belinostat + PAC, n=26, any grade, one grade 3 event) was 35%. For the same compound, the “Fraction of CTLA4-expressing Tregs” value ([3]; after belinostat alone, p=0.0078) was “increased significantly”, the “Fraction of CTLA4-expressing Tregs” value ([3]; after belinostat plus chemotherapy, p<0.0001) was “increased significantly” and the “TIM3+ CD8+T cells” value ([3]; following belinostat alone vs baseline, p < 0.0001) was “decreased significantly”. The “PD-1+ CD8+ T cells” value ([3]; following belinostat alone vs baseline, p=0.01) was “decreased significantly”, the “Number of Tregs” value ([3]; following belinostat alone, p=0.0009) was “decreased significantly” and the “Number of Tregs” value [3, 10] was “decreased significantly”. The “TIM3+ CD8+T cells” value ([3]; following belinostat with chemotherapy vs baseline, p <0.0001) was “decreased significantly”, the Median progression-free survival ([3]; patients with greater decline in Tregs post-combination therapy) was “not reached” and the Median progression-free survival ([3]; patients with greater decline in post-combination therapy TIM3+ CD8+T cells) was “not reached”. The “Median OS” value ([3]; patients with higher pre-treatment CTLA4-expressing Tregs) was 18.8 months, the Median progression-free survival ([3]; patients with lesser decreases in TIM3+ CD8+T cells) was 7.8 months and the “Median OS” value ([3]; patients with lower pre-treatment CTLA4-expressing Tregs) was 37.5 months. For the same compound, the “Median DOR” value (Thymoma) was “not reached”, the Median overall survival (Thymoma) was “Not reached” and the Median progression-free survival (Thymoma) was “Not reached”. The Complete response (Thymoma; 11 evaluable patients) was 1 (9) n (%), the “Disease control rate (95% confidence interval)” value (Thymoma; 11 evaluable patients) was 100 (71.5–100.0) % and the “Objective Response Rate (95% confidence interval)” value (Thymoma; 11 evaluable patients) was 64 (30.8–89.1) %. For the same compound, the “Partial Response” value (Thymoma; 11 evaluable patients) was 6 (55) n (%), the “Progressive Disease” value (Thymoma; 11 evaluable patients) was 0 n (%) and the “Stable Disease” value (Thymoma; 11 evaluable patients) was 4 (36) n (%). For the same compound, the “Patients who underwent R0 or R1 resection” value (thymic epithelial tumors; 9 of 23 assessed after at least 4 cycles of belinostat + PAC) was 39%, the “Patients with PD” value (thymic epithelial tumors; [11]) was 4% and the “Patients with PRs” value (thymic epithelial tumors; [11]) was 30%. For the same compound, the “Patients with CR” value (thymic epithelial tumors; 23 evaluable patients treated at dose level 1 (belinostat 1000 mg/m^2 + PAC)) was 4%, the “Patients with no evidence of disease at the time of reporting” value (thymic epithelial tumors; Six of 23, after multimodality therapy) was 26% and the Median progression-free survival (thymic epithelial tumors; belinostat + PAC, Total) was 9 months and 9.0 months. For the same compound, the Complete response (thymic epithelial tumors; [12]) was 1 (4) n (%), the “Disease control rate (95% confidence interval)” value (thymic epithelial tumors; [12]) was 96 (79.7 –99.9) % and the “Objective Response Rate (95% confidence interval)” value (thymic epithelial tumors; [12]) was 40 (21.1 –61.3) %. For the same compound, the “Partial Response” value (thymic epithelial tumors; [12]) was 9 (36) n (%), the “Progressive Disease” value (thymic epithelial tumors; [12]) was 1 (4) n (%) and the “Stable Disease” value (thymic epithelial tumors; [12]) was 14 (56) n (%). For the same compound, the Median overall survival (thymic epithelial tumors; belinostat + PAC, Total, median potential follow up 20.5 months) was 28.5 months, the “Patients with increase in total protein hyperacetylation of CD3+ cells” value ([4]; 21 of 23 patients, after belinostat) was 91% and the “Increase in total protein hyperacetylation of CD3+ cells, median” value ([4]; after belinostat) was 2.5 fold. For the same compound, the “p21 expression in CD14+ cells” value ([4]; after belinostat alone, p=0.019) was “increased”, the PBMC acetylated tubulin ([4]; after belinostat, p<0.0001) was “increased significantly” and the “Total protein hyperacetylation of CD3+ cells” value ([4]; after belinostat, p<0.0001) was “increased significantly”. For the same compound, the “Total protein hyperacetylation of CD14+ cells” value ([4]; after belinostat, p= 0.026) was “increased only marginally”, the “p21 expression in CD14+ cells” value [4, 10] was “increased” and the PBMC acetylated tubulin ([4]; following belinostat plus chemotherapy, p=0.0001) was “increased significantly”. For the same compound, the “Plasma concentration of belinostat during the 48-hour infusion” value ([5]; 250 mg/m^2 per 12-h infusion, with PAC) was “around 1 μM”, the clearance ([5]; Clearance, range, 48-hr CIVI, cycle 1, all patients) was 683 to 13200 mL/min and the clearance ([5]; Clearance, range, after excluding outlier patient) was 683 to 3350 mL/min. It also gave a half-life ([5]; Half-life, range, 48-hr CIVI) of 12 to 54.6 min, a clearance ([5]; Mean clearance, 48-hr CIVI, cycle 1, all patients) of 2220 mL/min and a half-life ([5]; Mean half-life, 48-hr CIVI) of 28.2 min. The clearance ([5]; Total systemic clearance, the only patient with high serum creatinine (1.43 mg/dL)) was 1770 mL/min, the “Differences in CMAX, AUCINF, clearance and half-life between genders and races” value ([5]; in vivo) was “no statistically significant differences” and the Dose-limiting toxicities ([6]; 2000 mg/m^2 belinostat (dose level 2) with PAC, in two patients) was “grade 3 nausea and diarrhea and grade 4 neutropenia and thrombocytopenia”. For the same compound, the “Maximum-tolerated dose (MTD) of belinostat” value ([6]; CIVI over 48 hours with PAC, 3-week cycles) was 1000 mg/m^2, the Median overall survival (Thymic carcinoma) was 21.4 months and the Median progression-free survival (Thymic carcinoma) was 7.2 months. The Complete response (Thymic carcinoma; 14 evaluable patients) was 0 n (%), the “Disease control rate (95% confidence interval)” value (Thymic carcinoma; 14 evaluable patients) was 93 (66.1–99.8) % and the “Objective Response Rate (95% confidence interval)” value (Thymic carcinoma; 14 evaluable patients) was 21 (4.7–50.8) %. The “Partial Response” value (Thymic carcinoma; 14 evaluable patients) was 3 (21) n (%), the “Progressive Disease” value (Thymic carcinoma; 14 evaluable patients) was 1 (7) n (%) and the “γ-H2AX expression on CD3+ cells” value ([7]; after belinostat alone, p=0.033) was “increased”. The “γ-H2AX expression on CD14+ cells” value ([7]; after belinostat alone, p=0.41) was “did not increase significantly”, the “γ-H2AX expression on CD14+ cells” value ([7]; after belinostat plus chemotherapy, p=0.012) was “increased” and the “γ-H2AX expression on CD3+ cells” value ([7]; following belinostat plus chemotherapy, p=0.01) was “increased”. The “Patients with stable disease” value (TETs; of 41 patients) was 25 patients, the Median overall survival (TETs; overall population) was 19.1 months and the “Median time to progression” value (TETs; overall population) was 5.8 months. For the same compound, the “Responses in patients with thymic carcinoma” value (TETs) was “no responses”.
